The test system of experiment [1] is ERK1/ERK2. The experiment can be described thus: ERK1/ERK2 dual phosphorylation in HUVEC (western blot). The class given is cell-based, human. The note with it: 15 min; TNF 100 U/ml, TNF70-80 10 μM. On the procedure: (§1) The level of myelin basic protein phosphorylation was quantitated by an Instant Imager.
(§2) Western blot analysis was conducted as described previously (Hii, C. S., Huang, Z. H., Bilney, A., Costabile, M., Murray, A. W., Rathjen, D. A., Der, C. J., and Ferrante, A. (1998) J. Biol. Chem. 273: 19277-19282). Briefly, equal amounts of denatured protein from each lysate were separated by 12% SDS polyacrylamide gel electrophoresis (PAGE). The proteins were electrophoretically transferred to nitrocellulose membranes (Schleicher and Schuell, Keene, N. H., USA)(3 h at 40V). […] Immune complexes were visualised by enhanced chemiluminescence (Hii, C. S., Huang, Z. H., Bilney, A., Costabile, M., Murray, A. W., Rathjen, D. A., Der, C. J., and Ferrante, A. (1998) J. Biol. Chem. 273: 19277-19282).
For orientation: In western blotting, separated proteins are transferred to a membrane and probed.

Experiment [2] has as its system mutant receptor peptide M4. Description: Binding of biotinylated TNF70-80 to mutant receptor peptide M4. The note with it: 20 μM biotinylated TNF70-80, 18 hrs at 37° C. More on the design: species or system human. The method, then: 100 μl of 0.7 mM solution of M4 or 1% BSA in PBS for control was coated on plates overnight for 24 hrs at 37° C. Plates were blocked for 6 hrs at 37° C. with 3% BSA in PBS. 100 μl of 20 μM of B-TNF70-80 was added to each well and allowed to incubate for 18 hrs at 37° C. Streptavidin-horseradish peroxidase and TMB H2O2 was added and bound product was detected by measuring absorbance at 450 nm.
100 μl of 0.7 mM solution of M4 or 1% BSA in PBS for control was coated on plates overnight for 24 hrs at 37° C. Plates were blocked for 6 hrs at 37° C. with 3% BSA in PBS. 100 μl of 20 μM of B-TNF70-80 was added to each well and allowed to incubate for 18 hrs at 37° C. Streptvadin-horseradish peroxidase and TMB H2O2 was added and bound product was detected by measuring absorbance at 450 nm.

For experiment [3], the system named is p38. Description: p38 kinase activity in human neutrophils. The note with it: 5 min; TNF 100 or 1000 U/ml, TNF70-80 10-50 μM. The class given is cell-based. The method, then:
(§3) The cells were lysed and the lysate assessed by western blot analysis for the level of dual-phosphorylated ERK1/ERK2 (top panel) and ERK2 protein (bottom panel). […] The level of myelin basic protein phosphorylation was quantitated by an Instant Imager.
Neutrophils were prepared from peripheral blood of healthy donors by a rapid single-step technique (Kumaratilake, L. M., Rathjen, D. A., Mack, P., Widmer, F., Prasertsiriroj, V., and Ferrante, A. (1995) J. Clin. Invest. 95: 2315-2323) using Hypaque-Ficoll and according to the institution's guidelines on human ethics. […] These were either used as cells in suspension or as adhered neutrophils by adding the cells to plasma coated plates as previously described (Powell, W., Gravel, S., Halwani, F., Hii, C. S., Huang, Z. H., Tan, A. M., and Ferrante, A. (1997) J. Immunol. 159: 2952-2959).
(§4) KHS (hereon referred to as “GCKR”) activity was assayed as described previously using myelin basic protein as a substrate (Shi, C. S., Leonardi, A., Kyriakis, J., Siebenlist, U., and Kerhl, J. H. (1999) J. Immunol. 163: 3279-3285). ASK-1 activation was determined in immunoprecipitates of ASK-1 by autophosphorylation (Kyriakis, J. M., and Auruch, J. (2001) Physiol. Rev. 81: 807-869). p38 and ERK activities were determined as described using myelin basic protein as a substrate (Hii, C. S., Huang, Z. H., Bilney, A., Costabile, M., Murray, A. W., Rathjen, D. A., Der, C. J., and Ferrante, A. (1998) J. Biol. Chem. 273: 19277-19282). […] A solid phase assay using glutathione-S-transferase (GST)-conjugated-jun (1-79) was employed to assay JNK activity (Hii, C. S., Huang, Z. H., Bilney, A., Costabile, M., Murray, A. W., Rathjen, D. A., Der, C. J., and Ferrante, A. (1998) J. Biol. Chem. 273: 19277-19282). Phosphorylated ASK-1, myelin basic protein and GST-jun (1-79) were fractionated on 8, 16 and 12% SDS polyacrylamide gels, respectively, and the bands were detected and radioactivity determined using an Instant Imager (Packard Instruments, Canberra, Australia).
as §1

The test system of experiment [4] is neutrophils. The experiment can be described thus: Neutrophil superoxide production, lucigenin chemiluminescence assay. The class given is cell-based, human. The note with it: agent alone as stimulus.
Description: Neutrophils were pre-treated with varying concentrations of SB203580 for 30 min and then exposed to 10 μM TNF70-80. The lucigenin enhanced chemiluminescence produced by the cells was measured in a luminometer. The peak initial rate of chemiluminescence produced is presented as the mean±sem of six experiments. The response in the presence of the inhibitor is expressed as a % of the control response.
Neutrophil superoxide production was measured as the chemiluminescence generated by the reduction of lucigenin, essentially as described previously (Kumaratilake, L. M., Rathjen, D. A., Mack, P., Widmer, F., Prasertsiriroj, V., and Ferrante, A. (1995) J. Clin. Invest. 95: 2315-2323). Briefly, to 1×10^6 neutrophils in 400 μl of HBSS was added 100 μl of stimulus and 500 μl of 250 μg/ml of lucigenin. The chemiluminescence was measured in a luminometer (Berthold Technologies, Bad Wildbad, Germany) over a 20 min period and the data imported into Microsoft Excel (Redmond, Wash.).
The cells were placed in a water-jacketed luminometer chamber (37° C.) (Autolumat Plus Model LB 953, Berthold Technologies, Bundoora, Australia) and the resulting light output recorded in millivolts (mV) at 10 second intervals. The data was analysed with Multiuser software (Berthold Tubemaster, Bundoora, Australia). The results are expressed as peak superoxide produced.
Various concentrations of TNFR1 fragment or diluent were added to neutrophils (106 in 100 μl HBSS) and incubated at 37° C. for 30 min 5% CO2 in air. After incubation 500 μl of lucigenin (250 μM, final), 100 μl of TNF70-80 (100 μg) were added and the final volume was adjusted to 1 ml.
Superoxide production by human neutrophils was measured by the reduction of the fluorescent lucigenin, (9,9′-bis(N-methyl-acridinium nitrate) (Sigma Chemical Company). This provides a direct and specific measure of agonist-induced superoxide production. Lucigenin-dependant chemiluminescence was measured as described previously Gyllenhannar H. (1987) J. Immunol. Methods 97:209-213. Briefly, 50 μl of 100 mg/ml of peptide or diluent and 250 ml of lucigenin was added to neutrophils (5×10^5 in 50 μl HBSS). The cells were placed in a water-jacketed luminometer chamber (37° C.) (Autolumat Plus Model LB 953, Berthold Technologies, Bundoora, Australia) and the resulting light output recorded in millivolts (mV) at 10 second intervals. The data was analysed with Multi-user software (Berthold Tubemaster, Bundoora, Australia).
Data are presented as mean±SEM of 3 experiments.
The test system of experiment [5] is GCKR/GLK. The experiment can be described thus: GCKR/GLK activity in adherent neutrophils. The class given is cell-based, human. The note with it: plasma-coated dishes; 15 min; TNF 1000 U/ml, TNF70-80 10 μM. On the procedure:
(§5) GCKR was immunoprecipitated from cell lysates and activity assayed using myelin basic protein (MBP) as the substrate. […] Activation of ASK-1 was determined by kinase autophosphorylation.
as §4

Experiment [6] has as its system JNK. The experiment can be described thus: JNK activation in neutrophils in suspension. The class given is cell-based, human. The conditions noted are these: 15 min; TNF 100 U/ml, TNF70-80 10 μM, anisomycin 2.5 μg/ml. The method, then: as §3
Neutrophils were prepared from peripheral blood of healthy donors by a rapid single-step technique (Kumaratilake, L. M., Rathjen, D. A., Mack, P., Widmer, F., Prasertsiriroj, V., and Ferrante, A. (1995) J. Clin. Invest. 95: 2315-2323) using Hypaque-Ficoll and according to the institution's guidelines on human ethics. […]
(§6) KHS (hereon referred to as “GCKR”) activity was assayed as described previously using myelin basic protein as a substrate (Shi, C. S., Leonardi, A., Kyriakis, J., Siebenlist, U., and Kerhl, J. H. (1999) J. Immunol. 163: 3279-3285). ASK-1 activation was determined in immunoprecipitates of ASK-1 by autophosphorylation (Kyriakis, J. M., and Auruch, J. (2001) Physiol. Rev. 81: 807-869). p38 and ERK activities were determined as described using myelin basic protein as a substrate (Hii, C. S., Huang, Z. H., Bilney, A., Costabile, M., Murray, A. W., Rathjen, D. A., Der, C. J., and Ferrante, A. (1998) J. Biol. Chem. 273: 19277-19282). […]

Experiment [7] concerns ASK-1. Description: ASK-1 autophosphorylation in neutrophils. The class given is cell-based, human. The method, then:
as §5, §4

In experiment [8] the test system is ERK. Description: ERK activation in adherent neutrophils. The class given is cell-based, human. The note with it: neutrophils pre-adhered to plasma-coated dishes; 15 min; TNF 1000 U/ml, TNF70-80 10 μM. On the procedure:
Neutrophils were prepared from peripheral blood of healthy donors by a rapid single-step technique (Kumaratilake, L. M., Rathjen, D. A., Mack, P., Widmer, F., Prasertsiriroj, V., and Ferrante, A. (1995) J. Clin. Invest. 95: 2315-2323) using Hypaque-Ficoll and according to the institution's guidelines on human ethics. […] These were either used as cells in suspension or as adhered neutrophils by adding the cells to plasma coated plates as previously described (Powell, W., Gravel, S., Halwani, F., Hii, C. S., Huang, Z. H., Tan, A. M., and Ferrante, A. (1997) J. Immunol. 159: 2952-2959). […]
as §6

Experiment [9] has as its system ASK-1. The experiment can be described thus: ASK-1 autophosphorylation in HEK293T cells. The note with it: 3 or 7 min. The class given is cell-based, human. On the procedure: as §5, §4
For experiment [10], the system named is NFκB. Description: NFκB pathway activation in human neutrophils (nuclear translocation of NFκB). The class given is cell-based. On the procedure:
After cell lysis, nuclear fractions were prepared, nuclear proteins separated by SDS page (12% gel), transferred to nitrocellulose and probed with an anti NFκB p65 antibody (Santa Cruz).
as §2
This pathway, akin to the p38 pathway, is dependent on TRAF-2 and RIP (Kyriakis, J. M., and Auruch, J. (2001) Physiol Rev. 81: 807-869). We measured the nuclear translocation of NFκB as an indicator of the activation of this pathway.

The subject of experiment [11] is p38. The experiment can be described thus: p38 activity in HUVEC (immunoprecipitation, myelin basic protein substrate). The class given is cell-based, human. The conditions noted are these: 5 min; TNF 1,000 U/ml, peptides 10 μM. On the procedure:
as §1, §4

In experiment [12] the test system is macrophage. The note with it: previous comparisons; cited from earlier work.
Experiment [13] has as its system JNK. Description: JNK activity in HUVEC (GST-jun solid phase assay). The class given is cell-based, human. The conditions noted are these: 15 min; TNF 100 and 1000 U/ml, TNF70-80 1-50 μM. On the procedure: as §1, §4

Where no end group is shown, it is not given here.

Turning to PSTHVLITHTI-OH [TNF70-80], the “dual phosphorylation of the ERKs in HUVEC” value in [1] was “caused only negligible phosphorylation of the ERKs”. For the same substance, the “binding to mutant receptor peptide M4 (truncated receptor)” value in experiment [2] is listed as “binds to the truncated receptor”. The “activity of p38 in neutrophils in suspension” value in experiment [3] was “enhanced the activity of p38”. In addition, the “stimulation of neutrophil respiratory burst / superoxide production” value in [4] is given as “stimulated a respiratory burst”. Besides, the “GCKR/GLK activity in adherent neutrophils” value in experiment [5] is reported as “poor at stimulating GCKR/GLK activity”. For the same substance, the “activity/phosphorylation of JNK in neutrophils in suspension” value in [6] was “neither TNF nor TNF70-80 stimulated the activity of either JNK or ERK”. For the same substance, the “ASK-1 phosphorylation in non-adherent neutrophils” value in experiment [7] (data not shown) is recorded as “not altered”. The “ASK-1 phosphorylation in adherent neutrophils” value in experiment [7] (plasma-coated dishes, 3 or 7 min) was “neither TNF nor TNF70-80 increased the level of ASK-1 phosphorylation”. Besides, the “ERK activation in adherent neutrophils” value in [8] is “failed to stimulate the activation of the ERKs”. Also, the “ASK-1 autophosphorylation in HEK293T cells” value in experiment [9] is on record as “did not affect the level of ASK-1 phosphorylation”. Also, the “nuclear translocation of NFκB in neutrophils” value in experiment [10] (TNF70-80 10 μM, 30 min or 1 h) is on record as “caused the translocation of NFκB to the nucleus”. Moreover, in experiment [10] (data not shown), the “degradation of IκB” value is listed as “caused the degradation of IκB”. Further, the “activity of p38 in HUVEC” value in experiment [11] was “stimulated the activity of p38”. The “concentration that equates to 1000 U/ml of TNF in ability to stimulate nitric oxide production in macrophage” value in experiment [12] is 5.0 µg/mL. Also, the “activity of JNK in HUVEC” value in experiment [13] is reported as “failed to stimulate the activity of JNK”.

Source of the values: patent publication US8268635B2, “Methods of identifying agents that selectively activate p38 and/or NKkB signaling” (priority 2006, dated 2012).
